In patent US20160375006A1, “USES OF PARALOG-SELECTIVE INHIBITORS OF GSK3 KINASES” (priority 2012, published 2016):

Tests used:
PAK4 = PAK4 (Homo sapiens, UniProt O96013)
Description: (§1) This was completed utilizing one of two assays depending on the kinase being examined.
(§2) A solution of IMAP binding reagent (IMAP Screening Express kit; Molecular Devices) (60 μL) was added to each well and incubated for 30 minutes.
(§3) A solution of termination buffer (QuickScout Screening assist MSA; Carna Biosciences) (60 μL) was added to each well. The entire reaction mixture was then applied to a LabChip3000 system (Caliper Life Science) and the product and substrate peptide peaks were separated and quantified.

EPHB4 = EPHB4 (Homo sapiens, UniProt P54760)
Description: as §1, §2, §3
(§4) The assay utilized was identical to that of the single point inhibitory activity determination (MSA) but run in dose response. […] A solution of termination buffer (QuickScout Screening assist MSA; Carna Biosciences) (60 μL) was added to each well. The entire reaction mixture was then applied to a LabChip3000 system (Caliper Life Science) and the product and substrate peptide peaks were separated and quantified.

MST3 = MST3 (Homo sapiens, UniProt Q9Y6E0)
Description: as §1, §2, §3, §4

RAF1_Cascade = RAF1_Cascade (Homo sapiens, UniProt P04049)
Description: as §1, §2, §3

TRKC = TRKC (Homo sapiens, UniProt Q16288)
Description: as §1, §2, §3, §4

IRR = IRR (Homo sapiens, UniProt P14616)
Description: as §1, §2, §3, §4

EPHA8 = EPHA8 (Homo sapiens, UniProt P29322)
Description: as §1, §2, §3, §4

p38δ = p38δ (Homo sapiens, UniProt O15264)
Description: as §1, §2, §3, §4

PIM2 = PIM2 (Homo sapiens, UniProt Q9P1W9)
Description: as §1, §2, §3, §4

PDGFRα(T674I) = PDGFRα(T674I) (Homo sapiens, UniProt P16234, T674I)
Chain of PDGFRα(T674I) (P16234 24-1089 T674I): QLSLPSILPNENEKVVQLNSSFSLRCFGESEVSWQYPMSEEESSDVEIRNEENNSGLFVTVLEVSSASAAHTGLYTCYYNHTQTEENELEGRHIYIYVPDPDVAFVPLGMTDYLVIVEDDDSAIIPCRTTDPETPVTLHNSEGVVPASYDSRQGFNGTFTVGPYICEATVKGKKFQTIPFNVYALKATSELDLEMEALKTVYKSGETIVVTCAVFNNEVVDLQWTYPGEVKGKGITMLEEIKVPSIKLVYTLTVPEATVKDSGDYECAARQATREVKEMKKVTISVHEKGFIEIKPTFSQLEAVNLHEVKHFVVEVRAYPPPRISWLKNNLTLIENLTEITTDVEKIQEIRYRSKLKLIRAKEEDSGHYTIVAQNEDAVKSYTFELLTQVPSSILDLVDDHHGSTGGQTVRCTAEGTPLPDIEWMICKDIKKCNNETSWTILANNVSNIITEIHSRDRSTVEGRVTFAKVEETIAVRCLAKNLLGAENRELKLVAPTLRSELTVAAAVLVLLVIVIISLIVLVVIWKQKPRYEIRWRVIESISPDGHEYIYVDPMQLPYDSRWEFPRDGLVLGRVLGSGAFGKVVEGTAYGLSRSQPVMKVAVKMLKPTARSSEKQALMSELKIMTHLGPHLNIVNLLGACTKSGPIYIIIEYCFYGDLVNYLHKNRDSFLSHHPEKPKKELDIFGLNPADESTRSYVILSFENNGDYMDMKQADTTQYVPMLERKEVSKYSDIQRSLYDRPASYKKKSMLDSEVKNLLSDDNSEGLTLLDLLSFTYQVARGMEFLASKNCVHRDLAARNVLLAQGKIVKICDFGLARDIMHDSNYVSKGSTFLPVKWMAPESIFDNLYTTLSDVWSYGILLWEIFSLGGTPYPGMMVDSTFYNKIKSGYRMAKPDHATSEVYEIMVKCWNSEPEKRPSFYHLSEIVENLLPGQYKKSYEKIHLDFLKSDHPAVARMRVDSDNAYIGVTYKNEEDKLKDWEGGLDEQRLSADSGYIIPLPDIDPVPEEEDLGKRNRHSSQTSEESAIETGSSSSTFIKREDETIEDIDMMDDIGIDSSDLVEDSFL
Description: as §1, §2, §3, §4

ITK = ITK (Homo sapiens, UniProt Q08881)
Description: as §1, §2, §3, §4

PASK = PASK (Homo sapiens, UniProt Q96RG2)
Description: as §1, §2, §3, §4

KIT = KIT (Homo sapiens, UniProt P10721)
Description: as §1, §2, §3

LYNa = LYNa (Homo sapiens, UniProt P07948)
Chain of LYNa (P07948 whole entry): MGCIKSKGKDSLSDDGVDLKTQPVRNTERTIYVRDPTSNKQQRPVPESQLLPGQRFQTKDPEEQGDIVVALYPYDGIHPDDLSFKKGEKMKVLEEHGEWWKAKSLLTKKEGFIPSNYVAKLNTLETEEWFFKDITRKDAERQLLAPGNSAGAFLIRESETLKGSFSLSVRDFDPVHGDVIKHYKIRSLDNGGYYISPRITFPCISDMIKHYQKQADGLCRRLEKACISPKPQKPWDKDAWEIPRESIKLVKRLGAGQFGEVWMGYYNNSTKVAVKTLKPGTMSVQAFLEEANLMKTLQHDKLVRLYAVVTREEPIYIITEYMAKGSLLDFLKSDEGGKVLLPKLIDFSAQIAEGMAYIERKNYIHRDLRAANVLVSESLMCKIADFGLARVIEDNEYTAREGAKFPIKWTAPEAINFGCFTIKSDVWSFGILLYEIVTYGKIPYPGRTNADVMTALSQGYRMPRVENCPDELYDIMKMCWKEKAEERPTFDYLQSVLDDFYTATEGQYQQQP
Description: as §1, §2, §3

TEC = TEC (Homo sapiens, UniProt P42680)
Description: as §1, §2, §3, §4

DCAMKL2 = DCAMKL2 (Homo sapiens, UniProt Q8N568)
Description: as §1, §2, §3, §4

PDHK2 = PDHK2 (Homo sapiens, UniProt Q15119)
Description: as §1, §2, §3, §4

MAP4K2 = MAP4K2 (Homo sapiens, UniProt Q12851)
Description: as §1, §2, §3, §4

DDR2 = DDR2 (Homo sapiens, UniProt Q16832)
Chain of DDR2 (Q16832 22-855): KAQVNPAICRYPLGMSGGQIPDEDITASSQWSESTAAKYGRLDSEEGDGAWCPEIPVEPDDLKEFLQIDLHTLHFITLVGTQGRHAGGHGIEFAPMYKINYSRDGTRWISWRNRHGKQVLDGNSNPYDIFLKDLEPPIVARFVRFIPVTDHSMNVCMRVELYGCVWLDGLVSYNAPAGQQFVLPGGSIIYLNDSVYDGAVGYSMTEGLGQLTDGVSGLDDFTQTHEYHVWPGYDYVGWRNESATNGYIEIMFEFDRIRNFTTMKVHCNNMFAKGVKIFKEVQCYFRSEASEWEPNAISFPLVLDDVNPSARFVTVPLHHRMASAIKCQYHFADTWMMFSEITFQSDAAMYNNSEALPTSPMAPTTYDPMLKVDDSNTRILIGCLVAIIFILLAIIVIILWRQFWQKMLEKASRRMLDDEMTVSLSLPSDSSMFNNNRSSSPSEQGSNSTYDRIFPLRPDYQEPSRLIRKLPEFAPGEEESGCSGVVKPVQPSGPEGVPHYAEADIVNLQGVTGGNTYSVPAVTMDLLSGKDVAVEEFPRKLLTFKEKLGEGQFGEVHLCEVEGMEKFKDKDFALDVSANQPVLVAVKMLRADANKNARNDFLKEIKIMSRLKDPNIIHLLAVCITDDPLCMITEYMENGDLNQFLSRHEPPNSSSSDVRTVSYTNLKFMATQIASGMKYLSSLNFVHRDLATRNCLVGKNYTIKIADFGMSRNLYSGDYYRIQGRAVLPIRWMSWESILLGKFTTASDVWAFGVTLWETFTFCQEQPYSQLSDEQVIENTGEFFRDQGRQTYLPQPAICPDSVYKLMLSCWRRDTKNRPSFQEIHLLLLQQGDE

SGK3 = SGK3 (Homo sapiens, UniProt Q96BR1)
Description: as §1, §2, §3, §4

DDR1 = DDR1 (Homo sapiens, UniProt Q08345)
Description: as §1, §2, §3, §4

MAP2K5_Cascade = MAP2K5_Cascade (Homo sapiens, UniProt Q13163)
Description: as §2, §3, §4

PAK1 = PAK1 (Homo sapiens, UniProt Q13153)
Description: as §2, §3, §4

RET(M918T) = RET(M918T) (Homo sapiens, UniProt P07949, M918T)
Description: as §1, §2, §3, §4

CLK2 = CLK2 (Homo sapiens, UniProt P49760)
Description: as §1, §2, §3, §4

MST2 = MST2 (Homo sapiens, UniProt Q13188)
Description: as §1, §2, §3

TSSK2 = TSSK2 (Homo sapiens, UniProt Q96PF2)
Description: as §1, §2, §3

CaMK2δ = CaMK2δ (Homo sapiens, UniProt Q13557)
Description: as §1, §2, §3, §4

ACK = ACK (Homo sapiens, UniProt Q07912)
Chain of ACK (Q07912 whole entry): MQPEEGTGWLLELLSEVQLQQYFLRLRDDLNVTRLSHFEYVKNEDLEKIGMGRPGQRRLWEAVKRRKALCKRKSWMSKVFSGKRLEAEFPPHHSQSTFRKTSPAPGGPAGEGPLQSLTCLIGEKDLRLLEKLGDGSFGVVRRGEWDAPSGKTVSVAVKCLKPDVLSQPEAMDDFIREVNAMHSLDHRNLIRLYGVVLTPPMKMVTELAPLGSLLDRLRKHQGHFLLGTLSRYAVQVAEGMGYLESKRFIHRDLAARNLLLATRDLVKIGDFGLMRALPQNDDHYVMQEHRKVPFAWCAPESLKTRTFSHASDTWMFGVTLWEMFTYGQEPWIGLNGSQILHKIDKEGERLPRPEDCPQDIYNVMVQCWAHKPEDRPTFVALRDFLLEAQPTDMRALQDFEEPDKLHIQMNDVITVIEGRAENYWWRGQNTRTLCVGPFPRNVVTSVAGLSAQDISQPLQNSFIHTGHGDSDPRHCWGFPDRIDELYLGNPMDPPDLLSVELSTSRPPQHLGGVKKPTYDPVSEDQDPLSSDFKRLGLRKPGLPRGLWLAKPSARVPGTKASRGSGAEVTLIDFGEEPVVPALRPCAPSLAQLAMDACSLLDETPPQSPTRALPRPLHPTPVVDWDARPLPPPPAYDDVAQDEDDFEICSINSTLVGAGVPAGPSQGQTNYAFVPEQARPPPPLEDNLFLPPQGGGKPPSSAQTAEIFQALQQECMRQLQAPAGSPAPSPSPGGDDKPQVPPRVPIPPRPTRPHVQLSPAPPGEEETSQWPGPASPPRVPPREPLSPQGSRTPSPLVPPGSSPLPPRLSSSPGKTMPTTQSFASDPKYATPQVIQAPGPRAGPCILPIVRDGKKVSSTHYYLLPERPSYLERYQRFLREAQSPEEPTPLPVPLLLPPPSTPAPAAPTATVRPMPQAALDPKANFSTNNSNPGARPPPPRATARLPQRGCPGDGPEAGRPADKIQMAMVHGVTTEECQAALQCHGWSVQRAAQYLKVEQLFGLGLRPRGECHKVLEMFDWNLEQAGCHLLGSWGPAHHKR
Description: as §1, §2, §3, §4

NEK2 = NEK2 (Homo sapiens, UniProt P51955)
Description: as §1, §2, §3, §4

RET = RET (Homo sapiens, UniProt P07949)
Description: as §1, §2, §3

RET(G691S) = RET(G691S) (Homo sapiens, UniProt P07949, G691S)
Description: as §1, §2, §3

TAOK2 = TAOK2 (Homo sapiens, UniProt Q9UL54)
Description: as §1, §2, §3

DYRK1B = DYRK1B (Homo sapiens, UniProt Q9Y463)
Description: as §1, §2, §3, §4

MST1 = MST1 (Homo sapiens, UniProt Q13043)
Description: as §1, §2, §3, §4

PKCγ = PKCγ (Homo sapiens, UniProt P05129)
Description: as §1, §2, §3, §4

TSSK1 = TSSK1 (Homo sapiens, UniProt Q9BXA7)
Description: as §1, §2, §3, §4

CDK4/CycD3 = CDK4/CycD3 (Homo sapiens, UniProt P11802)
Description: as §1, §2, §3

PIK3CA/PIK3R1 = PIK3CA/PIK3R1 (Homo sapiens, UniProt P42336)
Description: as §1, §2, §3, §4

PKCθ = PKCθ (Homo sapiens, UniProt Q04759)
Description: as §1, §2, §3

Chain of IRR (P14616 27-1297): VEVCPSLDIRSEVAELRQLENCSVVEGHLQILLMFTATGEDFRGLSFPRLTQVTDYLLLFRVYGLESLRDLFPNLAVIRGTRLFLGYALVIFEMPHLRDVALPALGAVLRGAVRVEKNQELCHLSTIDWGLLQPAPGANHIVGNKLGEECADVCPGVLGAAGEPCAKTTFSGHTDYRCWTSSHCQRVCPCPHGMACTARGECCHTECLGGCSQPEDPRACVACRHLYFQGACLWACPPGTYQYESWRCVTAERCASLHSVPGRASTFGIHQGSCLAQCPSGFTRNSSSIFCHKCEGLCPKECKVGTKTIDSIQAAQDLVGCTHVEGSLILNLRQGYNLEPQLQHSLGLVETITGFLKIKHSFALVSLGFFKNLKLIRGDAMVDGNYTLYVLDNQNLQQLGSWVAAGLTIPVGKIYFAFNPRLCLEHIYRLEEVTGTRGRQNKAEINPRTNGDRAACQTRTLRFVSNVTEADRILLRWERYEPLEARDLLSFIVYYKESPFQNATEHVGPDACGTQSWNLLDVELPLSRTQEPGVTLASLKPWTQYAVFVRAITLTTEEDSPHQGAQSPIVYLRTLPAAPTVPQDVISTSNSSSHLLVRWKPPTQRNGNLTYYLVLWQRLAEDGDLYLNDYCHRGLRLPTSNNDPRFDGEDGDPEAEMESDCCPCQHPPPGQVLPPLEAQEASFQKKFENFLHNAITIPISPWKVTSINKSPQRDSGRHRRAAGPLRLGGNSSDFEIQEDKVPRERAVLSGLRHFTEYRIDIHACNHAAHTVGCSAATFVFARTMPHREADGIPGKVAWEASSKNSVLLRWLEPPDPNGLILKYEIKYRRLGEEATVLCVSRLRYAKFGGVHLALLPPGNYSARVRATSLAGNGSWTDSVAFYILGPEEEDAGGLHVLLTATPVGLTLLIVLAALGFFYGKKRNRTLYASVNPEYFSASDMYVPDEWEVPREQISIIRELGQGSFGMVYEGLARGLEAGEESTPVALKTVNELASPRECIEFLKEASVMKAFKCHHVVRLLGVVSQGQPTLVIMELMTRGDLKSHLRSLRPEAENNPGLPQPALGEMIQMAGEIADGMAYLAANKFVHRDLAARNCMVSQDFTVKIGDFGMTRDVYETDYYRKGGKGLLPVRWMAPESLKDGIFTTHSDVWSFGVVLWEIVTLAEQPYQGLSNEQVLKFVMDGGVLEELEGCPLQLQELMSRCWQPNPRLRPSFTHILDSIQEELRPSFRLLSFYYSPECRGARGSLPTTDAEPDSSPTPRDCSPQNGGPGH
Chain of p38δ (O15264 whole entry): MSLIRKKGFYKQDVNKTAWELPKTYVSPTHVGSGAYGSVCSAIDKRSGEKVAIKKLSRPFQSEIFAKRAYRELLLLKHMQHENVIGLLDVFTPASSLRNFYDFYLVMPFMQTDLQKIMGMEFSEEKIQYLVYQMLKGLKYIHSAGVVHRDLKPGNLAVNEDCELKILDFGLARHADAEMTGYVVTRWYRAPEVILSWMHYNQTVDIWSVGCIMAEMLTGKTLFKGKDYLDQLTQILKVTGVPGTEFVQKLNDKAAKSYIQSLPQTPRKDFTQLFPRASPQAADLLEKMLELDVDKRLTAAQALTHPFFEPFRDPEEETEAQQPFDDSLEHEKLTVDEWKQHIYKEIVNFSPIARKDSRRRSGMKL
Excerpt for MAP3K4_Cascade: as §1
The assay utilized was identical to that of the single point inhibitory activity determination (MSA) but run in dose response.

CC[C@@]1(c2ccccc2)C2=C(CC(C)(C)CC2=O)Nc2n[nH]cc21 [BRD0705]
% Inhibition at 10 μM (PAK4): 33.8% | % Inhibition at 10 μM (EPHB4): 14.7% | % Inhibition at 10 μM (MST3): 11.7% | % Inhibition at 10 μM (MAP3K4_Cascade): 11.6% | % Inhibition at 10 μM (RAF1_Cascade): 7.5% | % Inhibition at 10 μM (TRKC): 6.4% | % Inhibition at 10 μM (IRR): 4.0% | % Inhibition at 10 μM (EPHA8): 2.9% | % Inhibition at 10 μM (p38δ): 2.4% | % Inhibition at 10 μM (PIM2): 0.5% | % Inhibition at 10 μM (PDGFRα(T674I)): 0.5% | % Inhibition at 10 μM (ITK): 0.3% | % Inhibition at 10 μM (PASK): 0.2% | % Inhibition at 10 μM (KIT): −0.3% | % Inhibition at 10 μM (LYNa): −0.4% | % Inhibition at 10 μM (TEC): −0.4% | % Inhibition at 10 μM (DCAMKL2): −0.5% | % Inhibition at 10 μM (PDHK2): −0.5% | % Inhibition at 10 μM (MAP4K2): −0.7% | % Inhibition at 10 μM (DDR2): −1.4% | % Inhibition at 10 μM (SGK3): −1.8% | % Inhibition at 10 μM (DDR1): −2.0% | % Inhibition at 10 μM (MAP2K5_Cascade): −2.3% | % Inhibition at 10 μM (PAK1): −2.9% | % Inhibition at 10 μM (RET(M918T)): −2.9% | % Inhibition at 10 μM (CLK2): −3.0% | % Inhibition at 10 μM (MST2): −3.4% | % Inhibition at 10 μM (TSSK2): −3.4% | % Inhibition at 10 μM (CaMK2δ): −4.4% | % Inhibition at 10 μM (ACK): −4.5% | % Inhibition at 10 μM (NEK2): −4.5% | % Inhibition at 10 μM (RET): −5.6% | % Inhibition at 10 μM (RET(G691S)): −5.6% | % Inhibition at 10 μM (TAOK2): −5.8% | % Inhibition at 10 μM (DYRK1B): −6.1% | % Inhibition at 10 μM (MST1): −7.3% | % Inhibition at 10 μM (PKCγ): −8.0% | % Inhibition at 10 μM (TSSK1): −8.5% | % Inhibition at 10 μM (CDK4/CycD3): −9.1% | % Inhibition at 10 μM (PIK3CA/PIK3R1): −10.7% | % Inhibition at 10 μM (PKCθ): −12.0%

CC(C)(C)Cc1[nH]nc2c1[C@](C)(c1ccccc1)C1=C(CC(C)(C)CC1=O)N2 [BRD3731]
% Inhibition 10 μM (PAK4; 10 μM): 0.6% | % Inhibition 10 μM (EPHB4; 10 μM): 1.9% | % Inhibition 10 μM (MST3; 10 μM): 7.4% | % Inhibition 10 μM (MAP3K4_Cascade; 10 μM): 12.4% | % Inhibition 10 μM (RAF1_Cascade; 10 μM): −6.6% | % Inhibition 10 μM (TRKC; 10 μM): 12.1% | % Inhibition 10 μM (IRR; 10 μM): 6.2% | % Inhibition 10 μM (EPHA8; 10 μM): −1.9% | % Inhibition 10 μM (p38δ; 10 μM): −0.2% | % Inhibition 10 μM (PIM2; 10 μM): 0.8% | % Inhibition 10 μM (PDGFRα(T674I); 10 μM): 3.1% | % Inhibition 10 μM (ITK; 10 μM): 2.8% | % Inhibition 10 μM (PASK; 10 μM): 10.7% | % Inhibition 10 μM (KIT; 10 μM): −1.7% | % Inhibition 10 μM (LYNa; 10 μM): −0.3% | % Inhibition 10 μM (TEC; 10 μM): 2.3% | % Inhibition 10 μM (DCAMKL2; 10 μM): −1.3% | % Inhibition 10 μM (PDHK2; 10 μM): 12.7% | % Inhibition 10 μM (MAP4K2; 10 μM): −7.5% | % Inhibition 10 μM (DDR2; 10 μM): 7.9% | % Inhibition 10 μM (SGK3; 10 μM): −5.2% | % Inhibition 10 μM (DDR1; 10 μM): 7.6% | % Inhibition 10 μM (MAP2K5_Cascade; 10 μM): 6.1% | % Inhibition 10 μM (PAK1; 10 μM): −18.6% | % Inhibition 10 μM (RET(M918T); 10 μM): −2.2% | % Inhibition 10 μM (CLK2; 10 μM): 6.1% | % Inhibition 10 μM (MST2; 10 μM): 1.5% | % Inhibition 10 μM (TSSK2; 10 μM): 3.8% | % Inhibition 10 μM (CaMK2δ; 10 μM): −0.3% | % Inhibition 10 μM (ACK; 10 μM): −1.3% | % Inhibition 10 μM (NEK2; 10 μM): −2.1% | % Inhibition 10 μM (RET; 10 μM): 3.0% | % Inhibition 10 μM (RET(G691S); 10 μM): −2.3% | % Inhibition 10 μM (TAOK2; 10 μM): 2.2% | % Inhibition 10 μM (DYRK1B; 10 μM): 2.0% | % Inhibition 10 μM (MST1; 10 μM): 3.9% | % Inhibition 10 μM (PKCγ; 10 μM): 5.0% | % Inhibition 10 μM (TSSK1; 10 μM): −0.8% | % Inhibition 10 μM (CDK4/CycD3; 10 μM): 18.1% | % Inhibition 10 μM (PIK3CA/PIK3R1; 10 μM): 42.5% | % Inhibition 10 μM (PKCθ; 10 μM): 12.1%
